This note sets out measurements from publication PMC2713499 (Biochemistry, 2009).

The data set concerns PC-3-Bcl-2 prostate cancer cells. Put plainly: In vitro cytotoxicity assay. Particulars: for cytotoxic effects: up to 100,000 nM, PC-3-Bcl-2, in words; for cytotoxic effects / inhibition of proliferation and viability compared to control: 96 h; for inhibition of proliferation and viability compared to control / % surviving fraction compared to mock: MTT, PC-3-Bcl-2; for % surviving fraction compared to mock: 96 hours. The class given is cell-based, Human.

Consider `CC(=O)Nc1nnc(S(N)(=O)=O)s1` [AZM, N-(5-(aminosulfonyl)-1,3,4-thiadiazol-2-yl)-acetamide], for which the cytotoxic effects entry is given as “no cytotoxic effects”. Same read-out and setting: the result for `NS(=O)(=O)c1nnc(NS(=O)(=O)c2ccccc2)s1` [BZM, 1,3,4-Thiadiazole-2-sulfonamide, 5-((phenylsulfonyl)amino)] reads “no cytotoxic effects”.

On to `NS(=O)(=O)c1nnc(-c2ccccc2Cl)s1` [CHL, 5-[o-chlorophenyl]-1,3,4-thiadiazole-2-sulfonamide], for which, for the setting “0.1 mM”, the “inhibition of proliferation and viability compared to control” value came to 57%; the “% surviving fraction compared to mock” value is reported as 43%. In the case of `CCOc1ccc2nc(S(N)(=O)=O)sc2c1` [EZM, 6-ethoxybenzothiazole-2-sulfonamide], the cytotoxic effects entry is given as “no cytotoxic effects”. `CC(=O)/N=c1/sc(S(N)(=O)=O)nn1C` [MZM, N-(3-methyl-5-sulfamoyl-3H-1,3,4-thiadiazol-2-ylidene)]: the “inhibition of proliferation and viability compared to control” value by setting is: (0.01 mM) 29%; (0.1 mM) 32%. In addition, the “% surviving fraction compared to mock” value (0.1 mM) was determined as 68%.
